Measured values: ChEMBL document CHEMBL2057164, “Head-to-head prenyl tranferases: anti-infective drug targets” (J Med Chem, 2012)

Experiment: Inhibition of Trypanosoma cruzi squalene synthase

`CC(C)=CCC/C(C)=C/CNCCNC1C2CC3CC(C2)CC1C3` (stereo unspecified) [SQ109] showed a Ki of 1.2 µM.
